≈ marks a conversion by molar mass, not a printed value.
Key:
[1] = tested on: Staphylococcus aureus; experiment: Antimicrobial activity against methicillin-susceptible Staphylococcus aureus 375 after 18 hrs by microbroth dilution method; type: functional
[2] = tested on: Bacillus subtilis; experiment: Antimicrobial activity against Bacillus subtilis 327 after 18 hrs by microbroth dilution method; type: functional
[3] = tested on: Escherichia coli; experiment: Antimicrobial activity against Escherichia coli imp 389 after 18 hrs by microbroth dilution method; type: functional
[4] = Ratio of LD50 for CD1 mouse to ED50 for Staphylococcus aureus
[5] = tested on: Staphylococcus aureus; experiment: Antimicrobial activity against Staphylococcus aureus infected in CD1 mouse administered subcutaneously after 30 mins infection measured after 7 days; type: functional; settings: sc
[6] = tested on: Staphylococcus aureus; experiment: Antimicrobial activity against methicillin-resistant Staphylococcus aureus 310 after 18 hrs by microbroth dilution method; type: functional
[7] = tested on: Bacillus subtilis; experiment: Inhibition of RNA synthesis in Bacillus subtilis assessed as [3H]uridine uptake at 8 ug/mL by LKB Betaplate scintillation counter relative to control; type: functional; design: scale not given: the % may be the effect or the level left
[8] = tested on: Bacillus subtilis; experiment: Inhibition of protein synthesis in Bacillus subtilis assessed as incorporation of [3H]amino acid at 8 ug/mL by LKB Betaplate scintillation counter relative to control; type: functional; design: scale not given: the % may be the effect or the level left
[9] = tested on: Bacillus subtilis; experiment: Inhibition of DNA synthesis in Bacillus subtilis assessed as incorporation of [3H]thymidine at 8 ug/mL by LKB Betaplate scintillation counter relative to control; type: functional; design: scale not given: the % may be the effect or the level left
[10] = tested on: Bacillus subtilis; experiment: Inhibition of DNA synthesis in Bacillus subtilis assessed as [3H]thymidine uptake at 8 ug/mL by LKB Betaplate scintillation counter relative to control; type: functional; design: scale not given: the % may be the effect or the level left
[11] = tested on: Bacillus subtilis; experiment: Inhibition of RNA synthesis in Bacillus subtilis assessed as incorporation of [3H]uridine at 8 ug/mL by LKB Betaplate scintillation counter relative to control; type: functional; design: scale not given: the % may be the effect or the level left
[12] = tested on: Bacillus subtilis; experiment: Inhibition of protein synthesis in Bacillus subtilis assessed as [3H]amino acid uptake at 8 ug/mL by LKB Betaplate scintillation counter relative to control; type: functional; design: scale not given: the % may be the effect or the level left
[13] = tested on: Bacillus subtilis; experiment: Inhibition of DNA synthesis in Bacillus subtilis assessed as [3H]thymidine uptake at 1 ug/mL by LKB Betaplate scintillation counter relative to control; type: functional; design: scale not given: the % may be the effect or the level left
[14] = Toxicity in human RBC assessed as hemolysis at 2 ug/ml after 2 hrs; type: cell-based, Erythrocyte; settings: red blood cells (RBC), read-out: Activity
[15] = tested on: Bacillus subtilis; experiment: Inhibition of DNA synthesis in Bacillus subtilis assessed as incorporation of [3H]thymidine at 2 ug/mL by LKB Betaplate scintillation counter relative to control; type: functional; design: scale not given: the % may be the effect or the level left
[16] = tested on: Bacillus subtilis; experiment: Inhibition of RNA synthesis in Bacillus subtilis assessed as [3H]uridine uptake at 2 ug/mL by LKB Betaplate scintillation counter relative to control; type: functional; design: scale not given: the % may be the effect or the level left
[17] = tested on: Bacillus subtilis; experiment: Inhibition of RNA synthesis in Bacillus subtilis assessed as incorporation of [3H]uridine at 4 ug/mL by LKB Betaplate scintillation counter relative to control; type: functional; design: scale not given: the % may be the effect or the level left
[18] = tested on: Bacillus subtilis; experiment: Inhibition of DNA synthesis in Bacillus subtilis assessed as incorporation of [3H]thymidine at 1 ug/mL by LKB Betaplate scintillation counter relative to control; type: functional; design: scale not given: the % may be the effect or the level left
[19] = Toxicity in human RBC assessed as hemolysis at 32 ug/ml after 2 hrs; type: cell-based, Erythrocyte; settings: red blood cells (RBC), read-out: Activity
[20] = tested on: Bacillus subtilis; experiment: Inhibition of protein synthesis in Bacillus subtilis assessed as incorporation of [3H]amino acid at 4 ug/mL by LKB Betaplate scintillation counter relative to control; type: functional; design: scale not given: the % may be the effect or the level left
[21] = tested on: Bacillus subtilis; experiment: Inhibition of protein synthesis in Bacillus subtilis assessed as [3H]amino acid uptake at 4 ug/mL by LKB Betaplate scintillation counter relative to control; type: functional; design: scale not given: the % may be the effect or the level left
[22] = tested on: Bacillus subtilis; experiment: Inhibition of protein synthesis in Bacillus subtilis assessed as incorporation of [3H]amino acid at 1 ug/mL by LKB Betaplate scintillation counter relative to control; type: functional; design: scale not given: the % may be the effect or the level left
[23] = tested on: Bacillus subtilis; experiment: Inhibition of RNA synthesis in Bacillus subtilis assessed as incorporation of [3H]uridine at 1 ug/mL by LKB Betaplate scintillation counter relative to control; type: functional; design: scale not given: the % may be the effect or the level left
[24] = tested on: Bacillus subtilis; experiment: Inhibition of RNA synthesis in Bacillus subtilis assessed as incorporation of [3H]uridine at 2 ug/mL by LKB Betaplate scintillation counter relative to control; type: functional; design: scale not given: the % may be the effect or the level left
[25] = Toxicity in human RBC assessed as hemolysis at 128 ug/ml after 2 hrs; type: cell-based, Erythrocyte; settings: red blood cells (RBC), read-out: Activity
[26] = tested on: Bacillus subtilis; experiment: Inhibition of DNA synthesis in Bacillus subtilis assessed as [3H]thymidine uptake at 2 ug/mL by LKB Betaplate scintillation counter relative to control; type: functional; design: scale not given: the % may be the effect or the level left
[27] = tested on: Bacillus subtilis; experiment: Inhibition of protein synthesis in Bacillus subtilis assessed as [3H]amino acid uptake at 2 ug/mL by LKB Betaplate scintillation counter relative to control; type: functional; design: scale not given: the % may be the effect or the level left
[28] = Toxicity in human RBC assessed as hemolysis at 1 ug/ml after 2 hrs; type: cell-based, Erythrocyte; settings: red blood cells (RBC), read-out: Activity
[29] = Toxicity in human RBC assessed as hemolysis at 4 ug/ml after 2 hrs; type: cell-based, Erythrocyte; settings: red blood cells (RBC), read-out: Activity
[30] = Toxicity in human RBC assessed as hemolysis at 64 ug/ml after 2 hrs; type: cell-based, Erythrocyte; settings: red blood cells (RBC), read-out: Activity
[31] = tested on: Bacillus subtilis; experiment: Inhibition of protein synthesis in Bacillus subtilis assessed as incorporation of [3H]amino acid at 2 ug/mL by LKB Betaplate scintillation counter relative to control; type: functional; design: scale not given: the % may be the effect or the level left
[32] = Toxicity in human RBC assessed as hemolysis at 8 ug/ml after 2 hrs; type: cell-based, Erythrocyte; settings: red blood cells (RBC), read-out: Activity
[33] = tested on: Bacillus subtilis; experiment: Inhibition of RNA synthesis in Bacillus subtilis assessed as [3H]uridine uptake at 4 ug/mL by LKB Betaplate scintillation counter relative to control; type: functional; design: scale not given: the % may be the effect or the level left
[34] = Toxicity in human RBC assessed as hemolysis at 0.5 ug/ml after 2 hrs; type: cell-based, Erythrocyte; settings: red blood cells (RBC), read-out: Activity
[35] = tested on: Bacillus subtilis; experiment: Inhibition of DNA synthesis in Bacillus subtilis assessed as incorporation of [3H]thymidine at 4 ug/mL by LKB Betaplate scintillation counter relative to control; type: functional; design: scale not given: the % may be the effect or the level left
[36] = tested on: Bacillus subtilis; experiment: Inhibition of protein synthesis in Bacillus subtilis assessed as [3H]amino acid uptake at 1 ug/mL by LKB Betaplate scintillation counter relative to control; type: functional; design: scale not given: the % may be the effect or the level left
[37] = Toxicity in human RBC assessed as hemolysis at 16 ug/ml after 2 hrs; type: cell-based, Erythrocyte; settings: red blood cells (RBC), read-out: Activity
[38] = tested on: Bacillus subtilis; experiment: Inhibition of DNA synthesis in Bacillus subtilis assessed as [3H]thymidine uptake at 4 ug/mL by LKB Betaplate scintillation counter relative to control; type: functional; design: scale not given: the % may be the effect or the level left
[39] = tested on: Bacillus subtilis; experiment: Inhibition of RNA synthesis in Bacillus subtilis assessed as [3H]uridine uptake at 1 ug/mL by LKB Betaplate scintillation counter relative to control; type: functional; design: scale not given: the % may be the effect or the level left

CC1(C)CC[C@]2(C(=O)O)CC[C@]3(C)C(=CC[C@@H]4[C@@]5(C)CC[C@@H](O)C(C)(C)[C@@H]5CC[C@]43C)[C@@H]2C1
MIC [1]: > 128 µg/mL | MIC [2]: 64 µg/mL (≈ 140 µM) | MIC [3]: > 128 µg/mL

CN[C@H](CC(C)C)C(=O)N[C@H]1C(=O)N[C@@H](CC(N)=O)C(=O)N[C@H]2C(=O)N[C@H]3C(=O)N[C@H](C(=O)N[C@H](C(=O)O)c4cc(O)cc(O)c4-c4cc3ccc4O)[C@H](O)c3ccc(c(Cl)c3)Oc3cc2cc(c3O[C@@H]2O[C@H](CO)[C@@H](O)[C@H](O)[C@H]2O[C@H]2C[C@](C)(N)[C@H](O)[C@H](C)O2)Oc2ccc(cc2Cl)[C@H]1O [VANCOMYCIN]
Ratio LD50/ED50 [4]: > 1024 | ED50 [5]: 1 mg/kg

CC(C)c1ccc2c(c1)CC[C@H]1[C@](C)(C(=O)O)CCC[C@]21C [DEHYDROABIETIC ACID]
MIC [1]: 16 µg/mL (≈ 53.3 µM) | MIC [6]: 32 µg/mL (≈ 107 µM) | MIC [2]: 32 µg/mL (≈ 107 µM) | MIC [3]: 128 µg/mL (≈ 426 µM)

C[C@H]1[C@H](C)CC[C@]2(C(=O)O)CC[C@]3(C)C(=CC[C@@H]4[C@@]5(C)CC[C@@H](O)C(C)(C)[C@@H]5CC[C@]43C)[C@H]12
MIC [1]: > 128 µg/mL | MIC [2]: 64 µg/mL (≈ 140 µM) | MIC [3]: > 128 µg/mL

O=C(N[C@H](CO)[C@H](O)c1ccc([N+](=O)[O-])cc1)C(Cl)Cl [CHLORAMPHENICOL]
Activity [7]: 141% | Activity [8]: 10% | Activity [9]: 80% | Activity [10]: 74% | Activity [11]: 166% | Activity [12]: 83%

C=C[C@]1(C)CC=C2C(CC[C@@H]3[C@](C)(CO)CCC[C@@]23C)C1 (stereo partly specified)
MIC [1]: 2 µg/mL (≈ 6.93 µM) | Activity [7]: 0% | Activity [13]: 13% | hemolysis at 2 h, 2 ug/ml [14]: 0.45% | Activity [15]: 2% | ED50 [5]: > 64 mg/kg | Activity [16]: 1% | Activity [17]: 0% | Activity [18]: 20% | Activity [8]: 2% | hemolysis at 2 h, 32 ug/ml [19]: 71.7% | Activity [9]: 1% | Activity [10]: 1% | Activity [20]: 2% | Activity [21]: 1% | Activity [22]: 36% | Activity [23]: 2% | Activity [24]: 1% | hemolysis at 2 h, 128 ug/ml [25]: 88.1% | MIC [6]: 2 µg/mL (≈ 6.93 µM) | MIC [2]: 4 µg/mL (≈ 13.9 µM) | Activity [26]: 2% | Activity [27]: 1% | hemolysis at 2 h, 1 ug/ml [28]: 0.08% | Activity [11]: 0% | hemolysis at 2 h, 4 ug/ml [29]: 0.3% | hemolysis at 2 h, 64 ug/ml [30]: 80.2% | Activity [31]: 4% | hemolysis at 2 h, 8 ug/ml [32]: 3.32% | Activity [33]: 0% | Activity [12]: 1% | hemolysis at 2 h, 0.5 ug/ml [34]: 0.3% | MIC [3]: > 128 µg/mL | Activity [35]: 1% | Activity [36]: 2% | hemolysis at 2 h, 16 ug/ml [37]: 14.8% | Activity [38]: 1% | Activity [39]: 1%

Source: ChEMBL document CHEMBL1159340, “Antibacterial diterpenes from Calceolaria pinifolia” (J Nat Prod, 2003)
